Patent US20090232735A1, “USE OF FRUCTOSE-BASED THERAPIES FOR THE TREATMENT OF CANCER” (CEDARS-SINAI MEDICAL CENTER, priority 2005, published 2009)

Key:
[1] = test system: PANC-1 pancreatic cancer cells; test: FACS cell cycle profile of PANC-1 cells; format: cell-based, human; details: PANC-1, 5.5 mM sugar, 48 h
Protocol: FIG. 15 depicts in the G0/G1 phase and the DNA synthesis (S) phase of pancreatic cells in glucose and fructose in accordance with an embodiment of the present invention. PANC-1 cells were plated in 2, and 5.5 mM glucose or 5.5 mM fructose for 48 h, after which cells were fixed in methanol, nuclei were stained with propidium iodide, and aliquots subjected to FACS analyzes.
This first result intrigued the inventors, but given there is little documentation regarding physiological fructose concentrations, the inventors first considered that the “apparent” pro-proliferative effects of fructose were simply a consequence of the highly stylized in vitro experimental conditions, and that if the pancreatic cancer cells were cultured in higher glucose concentrations, this would result in similar proliferative rates to those the inventors observed following culture in 5.5 mM fructose. Therefore, in the next experiments, the inventors compared proliferative rates of the PANC-1 pancreatic cancer cells following culture for 72 h in a range of fructose, and glucose concentrations (2-25 mM). This timepoint was chosen as the inventors had seen maximal pancreatic cancer cell proliferation in 5.5 mM fructose at 72 h. […] While not wishing to be bound by any particular theory, the inventors believe that this latter finding may be because the PANC-1 cells are proliferating at close to maximal capacity by 72 h, once they are exposed to comparatively low fructose concentrations (5 mM). MTS assay was employed to measure pancreatic cancer cell proliferative rates, which utilizes mitochondrial oxidation to quantify cell proliferation. As the inventors were examining carbohydrate-mediated effects, the inventors considered the change observed in proliferative rates, as measured by this assay, simply reflected changes in mitochondrial oxidation. Therefore, two additional methods were utilized to examine proliferative rates following fructose-treatment. […]

[2] = Serum fructose and glucose in normal volunteers after two cans of soda; format: in vivo, human
Protocol: FIG. 37 depicts fasting serum fructose and glucose levels in patients with pancreatic cancer and in normal volunteers in accordance with an embodiment of the present invention. (a) Fasting serum fructose and glucose levels in 6 patients with pancreatic cancer on the morning of resection. (b) Serum fructose, and glucose levels (Mean±SEM) in 3 normal volunteers after a 10 h fast, followed by ingestion of two cans of soda, containing 76 g of carbohydrate in the form of high fructose corn syrup (55% fructose, 45% glucose).
The normal circulating concentrations of fructose are unknown. […] Briefly, aliquots (20 μl) of fructose standards (0.1, 0.5, 1, 2, 4, 6, and 8 mM) or unknown serum samples were mixed with 5 μl of a stock solution (125 U/ml) of the enzyme fructose dehydrogenase (Sigma) in 175 μl citric acid (0.05 M) phosphate (0.09 M) buffer (pH 4.5), and 20 μl of 3-(4,5-dimethylthiazol-2-yl)-2,5-diphenyltetrazolium bromide (MTT), and phenazine methosulfate (Promega), incubated for 30 minutes, after which absorbance at 570 nm was recorded in a 96-well spectrophotometer. […] As the first analysis, in accordance with institutional review board guidelines, the inventors obtained 32 serum samples randomly selected from anonymous inpatients at Cedars-Sinai Medical Center. The inventors also measured glucose in these same samples using standard glucose oxidase based methods. No details of medical condition were known for these patients, and as depicted in FIG. 36, in 24 of these 32 patients, serum fructose was greater than 5 mM. This intriguing result prompted the inventors to examine serum fructose levels in two other settings. Firstly, the inventors drew fasting blood samples from 6 patients with pancreatic cancer on the morning of surgical tumor resection. As depicted in FIG. 37a, 4 of these 6 patients had fasting serum fructose levels >5 mM, and two patients had serum fructose concentrations of ˜12 mM. The significance of these findings in pancreatic cancer patients is at this point unclear, but the inventors believe that the fructose-mediated pro-proliferative effects seen in pancreatic cancer cells in vitro are of significance, given the circulating fructose concentrations the inventors measured. In a further experiment, 3 normal volunteers fasted for 10 hours, an indwelling cannula was placed in a forearm vein, baseline fasting blood drawn, after which they drank two cans of regular soda, which contained 76 g of sugars, almost exclusively high fructose corn syrup. This source of carbohydrate was chosen to approximate to equivalent glucose concentrations used in a standard 75 g glucose tolerance test, and to bear relevance that dietary sources of high content refined fructose may pose an independent risk factor for pancreatic cancer growth.

[3] = test system: MAPK pathway (pERK, pRSK, pMEK); test: Western blot of MAPK pathway in PANC-1 cells; format: cell-based, human; details: PANC-1, 5.5 mM sugar, 48 h
Protocol: FIG. 23 depicts Western blot analysis examining MAPK pathway expression in accordance with an embodiment of the present invention. PANC-1 pancreatic cancer cells were incubated in 2 mM glucose, 5.5 mM glucose or 5.5 mM fructose for 48 hours, after which Western blot analysis on total protein lysates was employed to examine phosphorylated MEK (pMEK), pRSK, and pCREB, and corresponding total MEK, RSK, and CREB levels.
Several signal transduction pathways may be involved in fructose-mediated pancreatic cancer growth but given the importance of the MAPK pathway in proliferation, the inventors believed that MAPK was involved. In the MAPK pathway, MEK mediated phosphorylation of the p44/42 MAP kinase (ERK) is the first step in this cascade, which results in phosphorylation of p90^Rsk, leading to transcriptional activation of CREB, and AP1, activating gene transcription and promoting cellular growth. The inventors employed Western blot analysis to examine MAPK pathway expression in pancreatic cancer cells incubated in 2 mM glucose, 5.5 mM glucose, and 5.5 mM fructose for 48 hours. Levels of the active phosphorylated proteins, pERK, pRSK, and pMEK were normalized to total ERK, RSK, and MEK levels respectively, and compared between the fructose-, and glucose-treated PANC-1 cells.

O=C(CO)[C@@H](O)[C@H](O)[C@H](O)CO [fructose]
increase of cells in S-phase in comparison to 2 mM glucose [1]: ~17% | percentage of cells in S-phase [1]: 47% | percentage of cells in resting G0/G1 [1]: 21.2% | mean fasting fructose level ([2]; 3 normal volunteers, 10 h fast, before soda): 2.66 mM | mean serum fructose peak ([2]; 30 minutes after two sodas): 17 mM | serum fructose levels ([2]; for the 2 hour duration of blood sampling after two sodas): greater than 5 mM | mean serum fructose levels ([2]; within 15 minutes after two sodas (76 g sugars, high fructose corn syrup)): 16.5 mM | pERK, pRSK, and pMEK expression [3]: highest pERK, pRSK, and pMEK expression
